The values below come from patent US12157729B2, “Solid state forms of Belumosudil and Belumosudil salts” (TEVA PHARMACEUTICALS INTERNATIONAL GMBH, priority 2020, dated 2024).

Series [1] can be described thus: Polymorphic stability at up to 100% relative humidity at room temperature. Format: physicochemical.
Series [2] can be described thus: Hygroscopicity of the crystalline form. The series is classed as physicochemical. As to conditions: crystalline solid form.

As to Belumosudil Besylate [Form BS1], the “time over which the form is polymorphically stable” value in series [1] is “at least 7 days”. The hygroscopicity result in series [2] is “non-hygroscopic”.
Turning to Belumosudil Mesylate [Form M1], the “time over which the form is polymorphically stable” value in series [1] is “at least 7 days”. For the same substance, the hygroscopicity entry in series [2] is on record as “non-hygroscopic”.
Belumosudil Tosylate [Form T1]: the “time over which the form is polymorphically stable” value in series [1] is “at least 7 days”. Also, the hygroscopicity entry in series [2] is recorded as “non-hygroscopic”.
